Experimental data taken from article PMC12315041 (ACS medicinal chemistry letters, 2025).

Target: T1, RIPK1 (receptor-interacting protein kinase 1) (Homo sapiens, UniProt Q13546)
T1 sequence (Q13546 1-671): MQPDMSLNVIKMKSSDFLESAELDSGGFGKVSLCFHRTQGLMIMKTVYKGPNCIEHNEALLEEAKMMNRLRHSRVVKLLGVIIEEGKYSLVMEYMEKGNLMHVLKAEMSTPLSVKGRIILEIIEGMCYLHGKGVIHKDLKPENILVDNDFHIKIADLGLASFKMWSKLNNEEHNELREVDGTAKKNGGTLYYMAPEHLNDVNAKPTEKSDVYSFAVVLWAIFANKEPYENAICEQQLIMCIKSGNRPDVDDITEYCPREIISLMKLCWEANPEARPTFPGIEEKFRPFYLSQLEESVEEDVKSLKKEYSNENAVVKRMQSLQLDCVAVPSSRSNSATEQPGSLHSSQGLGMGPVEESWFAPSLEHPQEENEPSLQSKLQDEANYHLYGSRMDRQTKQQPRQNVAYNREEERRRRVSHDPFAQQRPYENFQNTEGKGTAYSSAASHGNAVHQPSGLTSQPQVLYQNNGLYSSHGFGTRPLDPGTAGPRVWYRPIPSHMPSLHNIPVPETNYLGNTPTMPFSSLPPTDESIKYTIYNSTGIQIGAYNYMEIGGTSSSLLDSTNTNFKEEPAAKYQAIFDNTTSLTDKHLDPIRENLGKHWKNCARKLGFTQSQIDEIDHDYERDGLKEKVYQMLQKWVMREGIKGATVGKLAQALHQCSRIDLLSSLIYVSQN
Test: TR-FRET saturation binding

## Nc1ncnc2c1c(-c1ccc3c(c1)CCN3C(=O)Cc1cccc(OC(F)(F)F)c1)cn2CCCNC(=O)CCc1ccc2n1[B-](F)(F)[N+]1=C(c3ccc[nH]3)C=CC1=C2 [T2-BDP-589, T2-BODIPY-589]
  Kd: 443 nM
